# Measurements taken from article PMC9705435, “Thiocarbazate building blocks enable the construction of azapeptides for rapid development of therapeutic candidates” (Nature Communications, 2022).
# Numbered stars: 1 amine (or outer) side, 2 acyl side, 3 side chain; on linkers, the order of the positions; unused ones are H or OH. Square brackets hold non-standard residues; d marks the D form. Peptide text beside a SMILES is read from it. azaPhe = O=C(N(Cc1ccccc1)N[*:1])[*:2]; azaPro = O=C(N1CCCN1[*:1])[*:2]
# Experiments:
# [1] = molecular target: T1, 3T3 cells (Mus musculus, UniProt P32299); assay: PGE2 induction in 3T3 fibroblasts (ELISA); format: cell-based; conditions: 7 min, serum-free medium
# T1 sequence (P32299 1-392): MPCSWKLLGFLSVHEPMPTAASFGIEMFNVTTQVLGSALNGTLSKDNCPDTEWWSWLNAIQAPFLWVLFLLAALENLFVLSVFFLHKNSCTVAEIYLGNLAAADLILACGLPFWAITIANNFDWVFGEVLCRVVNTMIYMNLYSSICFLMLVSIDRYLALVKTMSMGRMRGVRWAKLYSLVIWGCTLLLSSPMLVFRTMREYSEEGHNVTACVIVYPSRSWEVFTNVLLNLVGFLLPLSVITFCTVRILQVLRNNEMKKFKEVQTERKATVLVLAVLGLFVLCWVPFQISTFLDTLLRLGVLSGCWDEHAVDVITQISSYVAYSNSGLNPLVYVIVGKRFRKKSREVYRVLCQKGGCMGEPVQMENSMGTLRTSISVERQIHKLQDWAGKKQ
# [2] = in vitro; conditions: male, C57BL/6J, mouse, blood
# [3] = molecular target: T2, HMGB1/MD-2 binding (Homo sapiens, UniProt Q9Y6Y9); assay: SPR HMGB1/MD-2 binding inhibition assay; conditions: immobilized disulfide HMGB1, MD-2 0.25 µM
# T2 construct: purchased R&D Systems 1787-MD
# T2 sequence (Q9Y6Y9 17-160 limits assumed): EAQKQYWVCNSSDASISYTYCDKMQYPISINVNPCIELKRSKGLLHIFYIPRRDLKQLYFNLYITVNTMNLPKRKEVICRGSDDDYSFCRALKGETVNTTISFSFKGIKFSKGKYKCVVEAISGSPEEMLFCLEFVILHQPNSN
# [4] = molecular target: T3, Human B2 (h) receptor (B2R) (Homo sapiens, UniProt P30411); assay: Human B2 (h) (agonist radioligand) receptor binding assay, [3H]bradykinin displacement
# T3 construct: host or cells: CHO cells
# T3 sequence (P30411 1-391): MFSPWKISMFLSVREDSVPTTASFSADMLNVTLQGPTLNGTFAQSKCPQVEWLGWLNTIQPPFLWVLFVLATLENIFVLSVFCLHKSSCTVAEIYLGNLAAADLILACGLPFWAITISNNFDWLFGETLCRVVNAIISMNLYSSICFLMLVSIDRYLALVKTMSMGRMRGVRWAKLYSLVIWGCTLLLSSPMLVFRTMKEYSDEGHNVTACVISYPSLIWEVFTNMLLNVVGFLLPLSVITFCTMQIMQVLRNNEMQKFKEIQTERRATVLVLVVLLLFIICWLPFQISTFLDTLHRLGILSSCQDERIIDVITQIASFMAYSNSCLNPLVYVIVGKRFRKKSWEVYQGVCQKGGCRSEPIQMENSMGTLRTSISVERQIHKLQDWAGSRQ
# Description: The data was collected by CRO Eurofins Cerep (France) and the result is attached as an additional data file. B2R radioligand agonist binding displacement assay for determination of IC-50.
# Test compounds (FI-U / [azaP2, azaF8-BK (70), FI-2V / azaF8-BK (68), and FI-8G / azaP2-BK (63)) were supplied to Eurofins in a blinded manner and run at five concentrations to determine the IC-50’s. Standard company control test compounds were used for assay validation. Experimental assays achieved inhibition of more than 50% and were considered to represent significant effects of the test compounds.
# (B2(h)) was used as the agonist for B2R receptor binding. The results are expressed as a percent of control specific binding (measured specific binding /control specific binding)*100, and as a percent inhibition of control specific binding (100 minus (measured specific binding/ control specific binding)*100) obtained in the presence of the test compounds. The IC50 values (concentration causing a half-maximal inhibition of control specific binding) and Hill coefficients (nH) were determined by non-linear regression analysis of the competition curves generated with mean replicate values using Hill equation curve fitting Y=D+[ A-D / 1+(C/C50) nH] where Y = specific binding, A = left asymptote of the curve, D = right asymptote of the curve, C = compound concentration, C50 = IC50, and nH = slope factor. This analysis was performed using software developed at Cerep (Hill software) and validated by comparison with data generated by the commercial software SigmaPlot® 4.0 for […]
# The inhibition constants (Ki) were calculated using the Cheng Prusoff equation. Ki=IC50/(1+L/Kd) where L = concentration of radioligand in the assay, and Kd = affinity of the radioligand for the receptor. A scatchard plot is used to determine the Kd. […]
# 9.1. Experimental Conditions
# 9.1.1. In Vitro Pharmacology: Binding Assays
# Assay Source Ligand Conc. Kd Non Specific Incubation Detection Bibl.
# (agonist recombinant (1 µM) RT counting
# 9.2. Analysis and expression of results
# 9.2.1. In Vitro Pharmacology: Binding Assays
# The results are expressed as a percent of control specific binding measured specific binding *100 […]
# and as a percent inhibition of control specific binding
# 100-( measured specific binding *100) […]
# obtained in the presence of the test compounds.
# The IC50 values (concentration causing a half-maximal inhibition of control specific binding) and Hill coefficients (nH) were determined by non-linear regression analysis of the competition curves generated with mean replicate values using Hill equation […]
# where Y = specific binding, A = left asymptote of the curve, D = right asymptote of the curve, C = compound concentration, C50 = IC50, and nH = slope factor. This analysis was performed using software developed at Cerep (Hill software) and validated by […]
# The inhibition constants (Ki ) were calculated using the Cheng Prusoff equation where L = concentration of radioligand in the assay, and KD = affinity of the radioligand for the receptor. A scatchard plot is used to […]
# [5] = system: murine monocytes; assay: HMGB1-stimulated TNF release in murine splenic monocytes (ELISA); format: cell-based, mouse; conditions: 0.1, 1 or 10 µM peptide, HMGB1 1 µg/ml, 24 h
# Description: 4.2 HMGB1 protein preparation
# For TNF ELISA experiments, […]
# [6] = male, C57BL/6J, mouse, blood
# [7] = system: STZ-induced type 1 diabetic (T1D) mice; assay: Low-dose streptozotocin (STZ)-induced type 1 diabetes in mice; conditions: 500 µg/mouse/day i.p.
Compound,EC50 [1] [nM],half-life [2] [min],IC50 [4] [nM],Ki [4] [nM],"% Inhibition of Control Specific Binding, 1st ([4]; 1.0E-06 M) [%]","% Inhibition of Control Specific Binding, 2nd ([4]; 1.0E-06 M) [%]","% Inhibition of Control Specific Binding, Mean ([4]; 1.0E-06 M) [%]","% Inhibition of Control Specific Binding, 1st ([4]; 1.0E-07 M) [%]","% Inhibition of Control Specific Binding, 2nd ([4]; 1.0E-07 M) [%]","% Inhibition of Control Specific Binding, Mean ([4]; 1.0E-07 M) [%]","% Inhibition of Control Specific Binding, 1st ([4]; 1.0E-08 M) [%]","% Inhibition of Control Specific Binding, 2nd ([4]; 1.0E-08 M) [%]","% Inhibition of Control Specific Binding, Mean ([4]; 1.0E-08 M) [%]","% Inhibition of Control Specific Binding, 1st ([4]; 1.0E-09 M) [%]","% Inhibition of Control Specific Binding, 2nd ([4]; 1.0E-09 M) [%]","% Inhibition of Control Specific Binding, Mean ([4]; 1.0E-09 M) [%]","% Inhibition of Control Specific Binding, 1st ([4]; 3.0E-08 M) [%]","% Inhibition of Control Specific Binding, 2nd ([4]; 3.0E-08 M) [%]","% Inhibition of Control Specific Binding, Mean ([4]; 3.0E-08 M) [%]",other results
"NC(N)=NCCC[C@H](NC(=O)[C@H](Cc1ccccc1)NC(=O)[C@@H]1CCCN1C(=O)[C@H](CO)NC(=O)[C@H](Cc1ccccc1)NC(=O)CNC(=O)[C@@H]1CCCN1C(=O)[C@@H]1CCCN1C(=O)[C@@H](N)CCCN=C(N)N)C(=O)O [Bradykinin, reference compound] (H-RPPGFSPFR-OH)",44.4,5.29 ± 0.5,–,–,–,–,–,–,–,–,–,–,–,–,–,–,–,–,–,–
"NC(=O)CCN(NC(=O)[C@H](CO)NC(=O)[C@H](CO)NC(=O)N(N)Cc1ccccc1)C(N)=O [Compound 57, azaF^1SSazaQ^4-NH2]",–,> 120,–,–,–,–,–,–,–,–,–,–,–,–,–,–,–,–,–,IC50 [3]: 83 nM
"NC(=O)CCN(NC(=O)[C@H](CO)NC(=O)[C@H](CO)NC(=O)[C@@H](N)Cc1ccccc1)C(N)=O [Compound 58, FSSazaQ^4-NH2]",–,–,–,–,–,–,–,–,–,–,–,–,–,–,–,–,–,–,–,IC50 [3]: 423 nM; half-life ([2]; Ex-vivo stability t 1/2): 2.9 ± 0.2 min
"N=C(N)NCCC[C@H](NC(=O)[C@H](Cc1ccccc1)NC(=O)[C@@H]1CCCN1C(=O)[C@H](CO)NC(=O)[C@H](Cc1ccccc1)NC(=O)CNC(=O)[C@@H]1CCCN1C(=O)N1CCCN1C(=O)[C@@H](N)CCCNC(=N)N)C(=O)O [Compound 63, RazaP^2PGFSPFR] (H-R[azaPro]PGFSPFR-OH; N-terminus and C-terminus assumed)",61.1,5.4 ± 1.1,7.9,4.5,98.9,98.6,98.8,94.6,95.1,94.9,58.5,56.4,57.4,0.2,-3.4,-1.6,86.3,63.9,75.1,–
"N=C(N)NCCC[C@H](NC(=O)N(Cc1ccccc1)NC(=O)[C@@H]1CCCN1C(=O)[C@H](CO)NC(=O)[C@H](Cc1ccccc1)NC(=O)CNC(=O)[C@@H]1CCCN1C(=O)[C@@H]1CCCN1C(=O)[C@@H](N)CCCNC(=N)N)C(=O)O [Compound 68, RPPGFSPazaF^8R] (H-RPPGFSP[azaPhe]R-OH; N-terminus and C-terminus assumed)",99.6,39.3 ± 2.5,8.8,4.1,99.7,100.1,99.9,98.0,95.2,96.6,61.5,66.7,64.1,8.0,2.9,5.4,72.4,64.6,68.5,–
"N=C(N)NCCC[C@H](NC(=O)N(Cc1ccccc1)NC(=O)[C@@H]1CCCN1C(=O)[C@H](CO)NC(=O)[C@H](Cc1ccccc1)NC(=O)CNC(=O)[C@@H]1CCCN1C(=O)N1CCCN1C(=O)[C@@H](N)CCCNC(=N)N)C(=O)O [Compound 70, RazaP^2PGFSPazaF^8R] (H-R[azaPro]PGFSP[azaPhe]R-OH; N-terminus and C-terminus assumed)",80.6,29.2 ± 3.8,11,5.6,97.1,99.5,98.3,84.7,91.4,88.1,36.3,48.4,42.3,-9.2,8.0,-0.6,67.6,73.7,70.6,–
"NC(=O)[C@H](CCC(=O)O)NC(=O)[C@H](CO)NC(=O)[C@H](CO)NC(=O)[C@@H](N)Cc1ccccc1 [FSSE-NH2 (P5779), FSSE-NH2, reference compound]",–,–,–,–,–,–,–,–,–,–,–,–,–,–,–,–,–,–,–,"HMGB1-induced TNF production [5]: dose-dependently reduced; Ex-vivo stability t 1/2 [6]: 2.0 ± 0.06 min; half-life ([2]; Ex-vivo stability t 1/2): < 2 min; severity of insulitis (insulitis scores) ([7]; 2 weeks of treatment, H&E): reduced; development of hyperglycemia ([7]; vs diabetic (saline) group): no significant effect"
